Results taken from US20220105183A1, “MICRO-NANO STRUCTURE FORMED BY SELF-ASSEMBLING ORGANIC SMALL MOLECULE COMPOUND AND USE THEREOF” (Qingdao University of Science and Technology, priority 2018, published 2022).

Key:
4T1 cells = assay: Photothermal imaging and photothermal treatment in subcutaneous metastasis model mice; assay type: in vivo, nude mice
Description: In the experimental group, 200 μL of II-1 (300 μmoL) was injected into the mouse through the tail vein, and the tumor site of the mouse was irradiated with an 808 nm laser for 10 minutes, while taking photos with a photothermal imaging instrument.
The nude mice were divided into 4 groups. In the first group, 200 μL of II-1 was injected into the mouse through the tail vein, and the tumor site of the mouse was irradiated with an 808 nm laser for 5 minutes. In the second group, 200 μL of II-1 (300 μmol) was injected, no laser irradiation. In the third group, saline was injected and laser irradiated for 5 minutes. In the fourth group, saline was injected, no laser irradiation. The tumor volume of each group of mice was measured daily with a vernier caliper, and the recording was continued for 30 days.

T4 cells = assay: Fluorescence imaging and photothermal treatment in sentinel lymphatic metastasis model mice; assay type: in vivo; settings: for tumor metastasis in the lungs, ink staining: day 20; for temperature at sentinel lymph nodes under laser: 808 nm laser (1.5 W/cm2) 10 minutes
Description: Cell preparation: The cells in the culture flask were digested with trypsin and placed in a centrifuge tube for use. The supernatant was discarded by centrifugation and counted. Then a large amount of medium was added and it was placed in a foam box to be taken to the company. The supernatant was removed by centrifugation, and about 3.5 mL of serum-free medium was added. It was prepared for injection.
After that, small animal fluorescence imaging and photothermal therapy can be performed.
Fluorescence imaging for the small animal was performed on the established mouse metastasis model. Using tail vein injection and intratumoral injection (FIG. 22), fluorescence detection was performed every 1 hour for a total of 5 hours.
The mice were treated with photothermal therapy after injection of tumor cells on the right hind foot pad with obvious sentinel lymph nodes (about 20 days). In this experiment, mice were randomly divided into 3 groups, each group 5 mice, saline+laser irradiation control group, intratumoral injection+laser irradiation experimental group and tail vein injection+laser irradiation experimental group, respectively.
After photothermal treatment of the mice, the mice were photographed and their weights were recorded every 5 days. […] After the mice were stained with ink on the lungs on day 20, the lungs of the mice were photographed.

[1] = Photothermal effect in vitro under 808 nm laser irradiation; assay type: physicochemical; settings: for light-to-heat conversion efficiency: 808 nm laser; for temperature raised by / temperature reached: 808 nm laser 5 minutes; for temperature reached: from room temperature 30° C.
Description: A total of 4 groups of samples, 3 mL was taken and added to a cuvette respectively, and the lid was sealed.
The sample No. 2 was 10 μM II-1, and the specific preparation method is 3 mL deionized water plus 15 μL II-1 stock solution (2 mM, dissolved in DMSO);
The sample No. 3 was 20 μM II-1, and the specific preparation method was that 3 mL deionized water was added 30 μL II-1 stock solution (2 mM, dissolved in DMSO);
The sample No. 4 was 40 μM II-1, and the specific preparation method was that 3 mL deionized water was added 60 μL II-1 stock solution (2 mM, dissolved in DMSO).
Each sample was irradiated with an 808 nm laser for 5 minutes, and the temperature data was recorded every 5 seconds with a thermal imager, and the temperature corresponding to the time was plotted in origin, as shown in the left figure of FIG. 8. […] The temperature of sample No. 2 increased from room temperature 30° C. to 54° C., and the temperature was raised by 24° C. The temperature of sample No. 3 increased from room temperature 30° C. to 62° C., and the temperature was raised by 32° C. The temperature of sample No. 4 increased from room temperature 30° C. to 77° C., and the temperature was raised by 47° C.
Using a method similar to Example 8, 10 μM, 20 μM and 40 μM samples of II-16, II-17 and II-18 were prepared, respectively, they were irradiated under an 808 nm (2.6 W/cm-2) laser for 10 minutes. 40 μM II-16 to 18 samples can rise by 40° C., 36° C. and 18° C. respectively within 10 minutes under laser irradiation.
Using a method similar to that in Example 8, three samples of 20 μM of 1-16, II-17 and II-18 in water were irradiated with 808 nm (2.6 W/cm-2) laser for 10 minutes, and the light-to-heat conversion efficiency calculation result thereof were shown in FIG. 10. […] And II-18 not only has poor light-heat effect, but also has low light-heat conversion efficiency, only 12.9%.

[2] = DLS particle size / self-assembly of the compounds in aqueous solution; assay type: physicochemical; settings: micro-nano structure, 20 μM working solution in deionized water
Description: The term “particle size” refers to the size of particles, also known as “granularity” or “diameter”. When a certain physical characteristic or physical behavior of the measured particle is closest to a homogeneous sphere (or combination) of a certain diameter, the diameter (or combination) of the sphere is taken as the equivalent particle size of the measured particle. The particle size parameter of the micro-nano structure of the present invention is measured by the principle of dynamic light scattering (DLS), specifically measured by a laser particle size analyzer.
Taking the self-assembled micro-nano structure of Compound II-1 as an example, II-1 was dissolved in DMSO (also can be an organic solvent such as ethanol) to prepare a 2 mM storage solution, and a small amount of storage solution was added to deionized water to prepare 20 μM working solution. Took 10 μL and dropped it on copper mesh, observed and analyzed under transmission electron microscope (TEM), cryo-transmission electron microscope. Took 10 μL and dropped it on mica plate, observed and analyzed under atomic force microscope (AFM). In FIGS. 5, A, B, C and D were TEM photographs, cryo-transmission electron microscope photographs, AFM photographs, and AFM analysis data, respectively. According to the photographs and data, II-1 was self-assembled into nanosheets with a diameter of 40-70 nm and a thickness of 3.7-3.9 nm. […]
Among them, the particle size test results of II-12 to II-15 in aqueous solution are shown in FIG. 6, and the results of dynamic light scattering DLS of II-16 to 1-18 are shown in FIG. 7).

[3] = Photodynamic effect test with carboxy-H2DCFDA; settings: 10 μM in water with 25 μM carboxy-H2DCFDA, 808 nm laser 10 minutes
Description: The control group only added carboxy-H2DCFDA compound. Irradiated with 808 nm laser for 10 minutes, and the sample was lowered to room temperature, and its fluorescence emission spectrum (Ex=495 nm, Em=530 nm) was tested. […] It has been verified that other compounds of the present invention have no similar photodynamic effect.

[4] = Group 1: 200 μL tail vein, 808 nm laser 5 minutes
[5] = experimental group, 20 days after the experiment
[6] = sample No. 2, 10 μM in deionized water
[7] = sample No. 3, 20 μM in deionized water
[8] = sample No. 4, 40 μM in deionized water

CCN1C(=CC=C2CCCC(C=CC3=C(C#N)C(=C(C#N)C#N)OC3(C)C)=C2Cl)C(C)(C)c2ccccc21 [II-1]
temperature of tumor site under laser irradiation (4T1 cells; 200 μL (300 μmoL) tail vein, 808 nm laser 10 minutes): 60 °C
day on which the tumor ulcer had completely healed (4T1 cells; [4]): 16 days
tumor after photothermal treatment (4T1 cells; [4]): the tumor disappeared after laser irradiation, and there was no recurrence within 20 days
body weight (4T1 cells; experimental group and control group): no abnormal change in the body weight
H&E staining of lung and liver (4T1 cells; [5]): no obvious damage to the lungs and liver
H&E staining of tumor (4T1 cells; [5]): the tumor cells had undergone apoptosis
growth of tumor volume (4T1 cells; group 2: 200 μL (300 μmol), no laser irradiation (stated for control groups 2, 3 and 4 together), in 20 days): 25 times
scars at the sentinel lymph nodes over time (T4 cells; intratumoral injection + laser): obviously healed
tumor metastasis in the lungs, ink staining (T4 cells; intratumoral injection + laser): no obvious tumor metastasis
temperature at sentinel lymph nodes under laser (T4 cells; intratumoral injection): significantly higher than that in the saline injection group
entry into the sentinel lymph node, fluorescence (T4 cells; intratumoral injection, detection every 1 hour for 5 hours): can obviously enter the sentinel lymph node of mice
day on which mice died (first) (T4 cells; tail vein injection + laser): 15 days
scars at the sentinel lymph nodes over time (T4 cells; tail vein injection + laser): showed a tendency to heal
tumor metastasis in the lungs, ink staining (T4 cells; tail vein injection + laser): obvious tumor metastasis
temperature at sentinel lymph nodes under laser (T4 cells; tail vein injection): significantly higher than that in the saline injection group
light-to-heat conversion efficiency [1, 6]: 60.4%
temperature raised by [1, 6]: 24 °C
temperature reached ([1]; sample No. 2, 10 μM): 54 °C
light-to-heat conversion efficiency [1, 7]: 61%
temperature raised by [1, 7]: 32 °C
temperature reached ([1]; sample No. 3, 20 μM): 62 °C
light-to-heat conversion efficiency [1, 8]: 60%
temperature raised by [1, 8]: 47 °C
temperature reached ([1]; sample No. 4, 40 μM): 77 °C
DLS particle size peak (nm) [2]: 104 nm
DLS particle size range (nm) [2]: 33-266 nm
production of reactive oxygen radicals (photodynamic effect) [3]: does not produce reactive oxygen radicals (ROS)
